For data set [1] the following is noted: comparison values for longer KFE peptides; ref [14], [37]; cited from earlier work. From the text: All the KFE5 peptide SAXS curves fit simple shape models of long polydisperse rods plus smaller globular components (Figure 5A). The characteristics of these rods, extracted from fitting to a Guinier‐plate model, are almost identical with an average rod or tape thickness estimated at 31.9(1) Å (Figure 5B). This is similar to our previously measured values for KFE8 and KFE12 [14, 37]. This thickness, which includes contributions from the solvent layer, matches the β‐sheet sandwich model. This appears to be a common feature of the KFE peptides that is not disrupted by the modification of the ...

Data set [2] can be described thus: Negative-stain TEM of self-assembled peptide fibrils (width, length, morphology). The class given is physicochemical. To be noted: for fibril width: assembled in water, 10 µM on grid, n = 200 measurements from 30 fibrils; for self-assembly / fibril morphology (in words): in water, identical preparation conditions. How it is done: Peptide solutions (10 µM; diluted in UPW from fibrillated peptide solutions as stated above) were applied directly to 200‐mesh, carbon‐coated copper grids for 2 min and stained with 1% uranyl formate for 1 min. Excess stain and the peptide solution were blotted using filter paper, and grids were washed thrice with UPW. Darkfield images were acquired on a JEOL (Akishima, Japan) JEM‐2100F Field‐Emission STEM microscope at an accelerating voltage of 120 kV.
Individual fibers were selected for measurement, avoiding aggregates. The width of each fiber was measured using the line tool by drawing a line across the fiber's width at an angle approximately perpendicular (90°) to its orientation to ensure accuracy. Similar measurements were done to calculate the length of the fibrils. The start and end points of the line were determined based on the contrast between the fiber and the surrounding background. […]

A short description of data set [3]: Small-angle X-ray scattering (SAXS) of peptide assemblies. The class given is physicochemical. The note with it: 4 mg/mL in deionized water (CN 2 mg/mL), 10°C, Debye‐Bueche fit 0.015–0.10 Å^−1. Here is the method:
SAXS data of the KFE5 X‐phenyl substituted peptide solutions were collected using a Rigaku (Woodlands, TX) BioSAXS‐1000 camera on an FRE^++ X‐ray generator with an ASC‐96 Automated Sample Changer held at 10°C. A matching buffer was collected for each sample. The detector was calibrated using a silver behenate powder sample, following the manufacturer's recommended procedure. The SAXS samples (KFE5 and its variants) were prepared by dissolving […] of lyophilized peptide in 400 µL of deionized water to produce a final concentration of 4 mg/mL. The samples were then vortexed, and precipitants were removed by centrifugation at […] for 5 min. Although the samples formed gels, these remained fluid under hydrostatic pressure, permitting pipetting by the ASC‐96 liquid handling system. The cyano variant of KFE5 was an exception. It remained a gel at 4 mg/mL and needed to be diluted to 2 mg/mL to be pipetted or flowed in the ASC‐96 liquid sample handling system. Processing was performed in SAXSLab (Rigaku) and SAXNS‐ES (https://xray.utmb.edu/SAXNS). Analyses were performed in Primus/GNOM [81], BIFT [82, 83], and gnuplot (http://www.gnuplot.info).

Data set [4] can be described thus: Gelation, rheology (G′, G″) and viscosity of peptide solutions. The class given is physicochemical. To be noted: for Gel Formation: 5 mM peptide concentration, in deionized water; for viscosity (in words): 5 mM peptide solutions, shear rate 100 s^-1, n = 4. How it is done:
An ARES 2000ex rotational rheometer (TA Instruments, New Castle, DE) was used to evaluate the viscosity and viscoelastic properties of the peptides. Peptides were freshly solubilized in deionized water at 5 mM and allowed to incubate for 10 min to allow for complete solubilization. Next, 170 µL of each peptide solution was pipetted directly onto the rheometer stage. A 20 mm parallel plate geometry was lowered to a gap of 200 µm. Storage modulus (G′) and loss modulus (G″) were measured as a function of strain amplitude of 0.05–50% at an angular frequency of 10 rad/s to determine the linear viscoelastic region. Next, G′ and G″ were measured as a function of angular frequency (1–10 rad/s) at a strain of 1%. […] Separately, a Hagen‐Poiseuille viscometer (microVISC, Rheosense, San Ramon, CA) was used at a shear rate of 1000 s^−1 to validate measured viscosity trends.

Data set [5] is described as follows: Thioflavin T (ThT) fluorescence assay of fibrils. The class given is physicochemical. To be noted: 50 µM peptide, ThT 10 µM, ex 440 nm / em 485 nm, n = 4. Here is the method:
For ThT assays, 50 µM fibrillated peptide solutions (diluted in UPW from fibrillated peptide solutions as stated above) were mixed with 20 µM ThT solution, and fluorescence was monitored at 485 nm upon excitation at 440 nm in a 96‐well plate using a Synergy HT plate reader (Biotek, USA). The OVA‐conjugated peptide fibrils were used to assess long‐term stability over a 7‐day period.

Data set [6] has as its system mouse bone-marrow dendritic cells (DCs). The experiment in a line: Cytokine and chemokine release from BMDC cultures treated with nanofibers. The class given is cell-based. To be noted: BMDCs treated with peptide nanofibers 10 μM for 24 h, supernatant analysed. Here is the method:
The femurs and tibiae of mice of C57BL/6 mice were flushed, and single‐cell suspensions were prepared, following removal of red blood cells (RBCs) using lysis buffer (Invitrogen, USA). After washing twice using HBSS (Hanks balanced salt solution), cells were differentiated for 7–9 days in complete Roswell Park Memorial Institute (RPMI) 1640 media containing heat‐inactivated Fetal bovine serum (FBS) (10%), β‐mercaptoethanol (55 µM), sodium pyruvate (1 mM), 10 mM 4‐hydroxyethylpiperazine ethane sulfonic acid (HEPES), 1× MEM (Minimum Essential Medium) non‐essential amino acids, 20 ng/mL granulocyte‐macrophage colony‐stimulating factor (GM‐CSF), 5 ng/mL IL‐4 and 100 µg/mL Penicillin‐Streptomycin (pen‐strep) in 150 mm dish (25 mL/dish) in an incubator at standard conditions (37°C and 5% CO2). Cells were harvested using gentle washing with MEM media between days 7–9 for experiments.
[picture] Figure S16. Cytokines and chemokines production in mouse bone-marrow dendritic cells (DCs) treated with peptide nanofibers (10 μM) for 24 h.

Data set [7] concerns the molecule itself. The experiment in a line: negative-stain TEM; peptide solutions 10 µM, diluted in ultrapure water from fibrillated 1 mM stocks, on carbon-coated copper grids, 1% uranyl formate.

The source of these data is article PMC13042944, “Substituent‐Based Modulation of Self‐Assembly and Immunogenicity of Amphipathic Peptides” (Advanced Science, 2026).

Like-named read-outs stand apart in the source and are kept apart here.

With `CC(=O)N[C@@H](Cc1ccccc1)C(=O)N[C@@H](CCCCN)C(=O)N[C@@H](Cc1ccccc1)C(=O)N[C@@H](CCC(=O)O)C(=O)N[C@@H](Cc1ccccc1)C(=O)N[C@@H](CCCCN)C(=O)N[C@@H](Cc1ccccc1)C(=O)N[C@@H](CCC(=O)O)C(N)=O` [KFE8, reference compound], in data set [1], the “gel inhomogeneity‐correlation length (ζ)” value is given as 25 Å. In addition, in data set [2], the fibril width was 8–10 nm and the “self-assembly / fibril morphology (in words)” value is on record as “thin nanofibrils”.

On to Ac-FKFEF-NH2 [KFE5, Ac‐FKFEF‐Am], for which, in data set [2], the fibril width is 50–100 nm and the “self-assembly / fibril morphology (in words)” value is given as “broader tape‐like structures”. For the same molecule, the “gel inhomogeneity‐correlation length (ζ)” value in data set [3] is on record as “about 58 Å”. In data set [4], the “Gel Formation” value is on record as “No” and the “viscosity (in words)” value is recorded as “highest viscosity among the non‐gelling derivatives”.

Ac-YKYEY-NH2 [KFE5(OH)]: in data set [2], the “self-assembly / fibril morphology (in words)” value is “complete ablation”. Further, in data set [4], the “Gel Formation” value was “No” and the “viscosity (in words)” value was “lowest viscosities”. In addition, in data set [4] (5 mM peptide, strain 1%, angular frequency 10 rad/s, n = 3), the “storage modulus G′, fold lower than parent peptide” value was “approximately 2.5 fold”. Further, the “ThT fluorescence intensity (in words)” value in data set [5] was “lowest and comparable to ThT alone”. Also, the “cytokine and chemokine release profile (in words)” value in data set [6] was “release of MIP‐1α and MIP‐1β without TNF‐α secretion”.

B1: KFE5 (Ac-FKFEF-Am) (peptide)
peptide: Ac-FKFEF-NH2
notes: designed amphipathic pentapeptide, truncated variant of KFE8; also called KFE5(H); source: synthetic peptide (Fmoc-SPPS on Rink Amide resin, HPLC purified)
Consider B1, for which, in data set [7], the binding result is on record as “binds”.

B2: KFE8 (Ac-FKFEFKFE-Am) (peptide)
peptide: Ac-FKFEFKFE-NH2
notes: designed amphipathic octapeptide; also called double repeat of FKFE
For the molecule B2, in data set [7], the binding result is “binds”.
